Literature values, collected in patent US20190011434A1, “METHODS TO DETERMINE CANCER TREATMENT USING ROBOTIC HIGH-THROUGHPUT DRUG SENSITIVITY TESTING” (AntiCancer, Inc., priority 2017, published 2019).

How the values were obtained:
[1] = system: head and neck squamous cell carcinoma (HNSCC) tumor specimens; details: 41 evaluated tumors; cisplatin 15 microg/mL or 5-fluorouracil 40 microg/mL; sensitivity = inhibition rate greater than 30%
[2] = system: primary tumor and axillary lymph node metastasis from breast cancer patients; details: 30 patients; cutoff drug concentrations; 7 days incubation; p<0.05

SMILES	Resistance in the HDRA (share of cases) [1]	Chemosensitivity of lymph node metastases compared with primary tumor [2]
N.N.[Cl][Pt][Cl] [cisplatinum]	32%	not
O=c1[nH]cc(F)c(=O)[nH]1 [5-fluorouracil]	32%	more resistant than the primary tumor
COc1cccc2c1C(=O)c1c(O)c3c(c(O)c1C2=O)C[C@@](O)(C(=O)CO)C[C@@H]3O[C@H]1C[C@H](N)[C@H](O)[C@H](C)O1 [DOX, doxorubicin]		more resistant than the primary tumor
CO[C@@]12[C@H](COC(N)=O)C3=C(C(=O)C(C)=C(N)C3=O)N1C[C@@H]1N[C@@H]12 [MMC, mitomycin C]		more resistant than the primary tumor
